The structures appear in SMILES notation. Where a name gives a salt, the structure may show the parent alone. Read-outs that look alike come from different tables or passages of the source.

In this experiment the target is SARS-CoV-2 3CLpro (Severe acute respiratory syndrome coronavirus 2, UniProt P0DTD1). Put plainly: biochemical. Type of experiment: biochemical. Also noted: Replicate_1 / Replicate_2 / mean / mean (LOPAC_screen_w_protease): unit not given here. Particulars: for inhibition at 5 µM: 4 h.
Where [1] appears, read: LOPAC1280 primary screen with protease, 5 µM compound, mean of two replicates.
The mark [2] stands for this setting: LOPAC1280 primary screen with protease, 5 µM compound, replicate 1.
Where [3] appears, read: LOPAC1280 primary screen with protease, 5 µM compound, replicate 2.
Where [4] appears, read: LOPAC1280 primary screen with protease, 5 µM compound, replicate 1, read-out: Replicate_1 (LOPAC_screen_w_protease).
Setting [5] is: LOPAC1280 primary screen with protease, 5 µM compound, replicate 2, read-out: Replicate_2 (LOPAC_screen_w_protease).
The mark [6] stands for this setting: sheet LOPAC_screen_w_protease, primary screen with protease, mean of two replicates, read-out: mean.
The mark [7] stands for this setting: sheet LOPAC_screen_w_protease, primary screen with protease, replicate 1, read-out: Replicate_1.
Setting [8] is: sheet LOPAC_screen_w_protease, primary screen with protease, replicate 2, read-out: Replicate_2.
The mark [9] stands for this setting: sheet LOPAC_screen_w_protease, primary screen with protease, compound at 5 µM, mean of two replicates.
The mark [10] stands for this setting: sheet LOPAC_screen_w_protease, primary screen with protease, compound at 5 µM, replicate 1.
[11] abbreviates: sheet LOPAC_screen_w_protease, primary screen with protease, compound at 5 µM, replicate 2.
Where [12] appears, read: sheet LOPAC_screen_w_protease, LOPAC1280 at 5 µM, mean of two replicates, read-out: mean.
Where [13] appears, read: sheet LOPAC_screen_w_protease, LOPAC1280 at 5 µM, replicate 1, read-out: Replicate_1.
[14] abbreviates: sheet LOPAC_screen_w_protease, LOPAC1280 at 5 µM, replicate 2, read-out: Replicate_2.
[15] abbreviates: sheet LOPAC_screen_w_protease, primary screen of LOPAC1280 at 5 µM with protease, mean of the two replicates, read-out: mean.
The mark [16] stands for this setting: sheet LOPAC_screen_w_protease, primary screen of LOPAC1280 at 5 µM with protease, replicate 1, read-out: Replicate_1.
[17] abbreviates: sheet LOPAC_screen_w_protease, primary screen of LOPAC1280 at 5 µM with protease, replicate 2, read-out: Replicate_2.
Where [18] appears, read: sheet LOPAC_screen_w_protease, primary screen with protease, compound at 5 µM, mean of two replicates, read-out: mean.
[19] abbreviates: sheet LOPAC_screen_w_protease, primary screen with protease, compound at 5 µM, replicate 1, read-out: Replicate_1.
Setting [20] is: sheet LOPAC_screen_w_protease, primary screen with protease, compound at 5 µM, replicate 2, read-out: Replicate_2.
Where [21] appears, read: LOPAC1280 primary screen with protease, 5 µM compound, mean of the two replicates.

For `Cl.Cl.NCCC(=O)NCCc1c[nH]cn1` [Carcinine dihydrochloride], the “mean (LOPAC_screen_w_protease)” value under setting [1] came out at 1.47. The “Replicate_1 (LOPAC_screen_w_protease)” value under setting [2] is reported as -0.04434. Moreover, the “Replicate_2 (LOPAC_screen_w_protease)” value under setting [3] was 2.985.
Take `CCCC(C)(COC(N)=O)COC(=O)NC(C)C` (stereo not drawn) [Carisoprodol]: the inhibition at 5 µM is, setting by setting: (read-out: Replicate_1) -0.28%; (read-out: Replicate_2) 2.2%; (read-out: mean) 0.96%.
Consider `N[C@@H](C(=O)N[C@@H]1C(=O)N2C(C(=O)O)=C(Cl)CS[C@H]12)c1ccccc1` [Cefaclor], for which the inhibition at 5 µM by setting is: (read-out: Replicate_1 (LOPAC screen with protease)) 13.9%; (read-out: Replicate_2 (LOPAC screen with protease)) 11.6%; (read-out: mean (LOPAC screen with protease)) 12.7%.
For `CO[C@@]1(NC(=O)CSCC#N)C(=O)N2C(C(=O)O)=C(CSc3nnnn3C)CS[C@@H]21` [Cefmetazole sodium], the inhibition at 5 µM by setting is: under setting [4], 1.13%; under setting [5], 2.27%. Further, the “mean (LOPAC_screen_w_protease)” value under setting [1] stood at 1.702.
Consider `CO/N=C(\C(=O)N[C@@H]1C(=O)N2C(C(=O)O)=C(COC(C)=O)CS[C@H]12)c1csc(N)n1` [Cefotaxime sodium], for which the inhibition at 5 µM reads like this: under setting [6], 2.42%; under setting [7], 1.54%; under setting [8], 3.3%.
`NC(=O)c1cc[n+](CC2=C(C(=O)[O-])N3C(=O)[C@@H](NC(=O)C(c4ccccc4)S(=O)(=O)[O-])[C@H]3SC2)cc1.O.[Na+]` (stereo partly drawn) [Cefsulodin sodium salt hydrate] had a mean under setting [9] of 2.816. This compound also had a Replicate_1 under setting [10] of 2.052. This compound returned a Replicate_2 under setting [11] of 3.58.
For the compound `CN(C)CCOC(=O)COc1ccc(Cl)cc1` [Centrophenoxine hydrochloride], the inhibition at 5 µM was determined as 1.27% under setting [12], 1.82% under setting [13] and 0.724% under setting [14].
Turning to `CC1=C(C(=O)O)N2C(=O)[C@@H](NC(=O)[C@H](N)c3ccccc3)[C@H]2SC1.O` [Cephalexin hydrate], the “mean (LOPAC_screen_w_protease)” value under setting [1] came out at 1.619. The “Replicate_1 (LOPAC_screen_w_protease)” value under setting [2] was determined as 2.163. Besides, under setting [3], the “Replicate_2 (LOPAC_screen_w_protease)” value turned out to be 1.074.
Compound `CC(=O)OCC1=C(C(=O)[O-])N2C(=O)[C@@H](NC(=O)CCC[C@@H](N)C(=O)[O-])[C@H]2SC1.[Zn+2]` [Cephalosporin C zinc salt] showed a mean (sheet LOPAC_screen_w_protease, primary screen with protease, 5 µM, mean of two replicates) of 0.2554. This compound showed a Replicate_1 (sheet LOPAC_screen_w_protease, primary screen with protease, 5 µM, replicate 1) of 0.7755. This compound had a Replicate_2 (sheet LOPAC_screen_w_protease, primary screen with protease, 5 µM, replicate 2) of -0.2647.
With `CC(=O)OCC1=C(C(=O)O)N2C(=O)[C@@H](NC(=O)Cc3cccs3)[C@H]2SC1` [Cephalothin sodium], the inhibition at 5 µM runs as follows: (sheet LOPAC_screen_w_protease, LOPAC1280 primary screen with protease, 5 µM compound, mean of the two replicates, read-out: mean) 5.22%; (sheet LOPAC_screen_w_protease, LOPAC1280 primary screen with protease, 5 µM compound, replicate 1, read-out: Replicate_1) 4.83%; (sheet LOPAC_screen_w_protease, LOPAC1280 primary screen with protease, 5 µM compound, replicate 2, read-out: Replicate_2) 5.61%.
Regarding `CC(=O)OCC1=C(C(=O)O)N2C(=O)[C@@H](NC(=O)CSc3ccncc3)[C@H]2SC1` [Cephapirin sodium], the inhibition at 5 µM is, setting by setting: under setting [15], 4.07%; under setting [16], 3.36%; under setting [17], 4.79%.
Regarding `CC1=C(C(=O)O)N2C(=O)[C@@H](NC(=O)[C@H](N)C3=CCC=CC3)[C@H]2SC1` [Cephradine], the inhibition at 5 µM came to 3.13% under setting [18], 2.84% under setting [19] and 3.42% under setting [20].
As for `COc1ccc2c(c[n+](C)c3c4cc5c(cc4ccc23)OCO5)c1OC` [Chelerythrine chloride], the inhibition at 5 µM is, setting by setting: (sheet LOPAC_screen_w_protease, primary screen at 5 µM, mean of two replicates, read-out: mean (LOPAC screen with protease)) 11.5%; (sheet LOPAC_screen_w_protease, primary screen at 5 µM, replicate 1, read-out: Replicate_1 (LOPAC screen with protease)) 12.7%; (sheet LOPAC_screen_w_protease, primary screen at 5 µM, replicate 2, read-out: Replicate_2 (LOPAC screen with protease)) 10.3%.
Take `O=C(O)c1cc(O)cc(C(=O)O)n1` [Chelidamic acid]: the inhibition at 5 µM is, setting by setting: under setting [18], 3.14%; under setting [19], 2.7%; under setting [20], 3.58%.
For `CN1C(=O)CCS(=O)(=O)C1c1ccc(Cl)cc1` (stereo not drawn) [Chlormezanone], the inhibition at 5 µM is 0.463% (sheet LOPAC_screen_w_protease, LOPAC1280 primary screen at 5 µM, with protease, mean of the two replicates, read-out: mean); 2.15% (sheet LOPAC_screen_w_protease, LOPAC1280 primary screen at 5 µM, with protease, replicate 1, read-out: Replicate_1); -1.22% (sheet LOPAC_screen_w_protease, LOPAC1280 primary screen at 5 µM, with protease, replicate 2, read-out: Replicate_2).
As to `CNC(=O)[C@H]1O[C@@H](n2cnc3c(NCc4cccc(I)c4)nc(Cl)nc32)[C@H](O)[C@@H]1O` [Chloro-IB-MECA], the inhibition at 5 µM was determined as 3.22% under setting [15], 4.25% under setting [16] and 2.19% under setting [17].
Consider `CCN(CC)CCCC(C)Nc1ccnc2cc(Cl)ccc12` (stereo not drawn) [Chloroquine diphosphate], for which the inhibition at 5 µM (read-out: Replicate_1) is 2.19%, the inhibition at 5 µM (read-out: Replicate_2) is 3.74% and the inhibition at 5 µM (read-out: mean) amounted to 2.97%.
On to `NS(=O)(=O)c1cc2c(cc1Cl)N=CNS2(=O)=O` [Chlorothiazide], for which the inhibition at 5 µM is, setting by setting: under setting [12], 0.892%; under setting [13], 1.61%; under setting [14], 0.17%.
Regarding `CN(C)CCCN1c2ccccc2Sc2ccc(Cl)cc21` [Chlorpromazine hydrochloride], the inhibition at 5 µM was 0.794% (read-out: Replicate_1), 0.374% (read-out: Replicate_2) and 0.584% (read-out: mean).
`CCCNC(=O)NS(=O)(=O)c1ccc(Cl)cc1` [Chlorpropamide]: the inhibition at 5 µM reads like this: under setting [4], 1.51%; under setting [5], 2.73%. Further, under setting [21], the “mean (LOPAC_screen_w_protease)” value stood at 2.118.
Regarding `CN(C)CC/C=C1/c2ccccc2Sc2ccc(Cl)cc21` [Chlorprothixene hydrochloride], the inhibition at 5 µM by setting is: under setting [12], 1.25%; under setting [13], 0.326%; under setting [14], 2.17%.
Take `C[N+](C)(C)CCO.[Br-]` [Choline bromide]: the Replicate_1 came out at 2.262, the Replicate_2 came to 3.547 and the mean came to 2.905.
With `CN(C(=O)CCCOc1ccc2[nH]c(=O)ccc2c1)C1CCCCC1` [Cilostamide], the inhibition at 5 µM reads like this: under setting [6], 2.23%; under setting [7], 1.11%; under setting [8], 3.35%.
Taken in the same sequence, the figures for `O=C1CCc2cc(OCCCCc3nnnn3C3CCCCC3)ccc2N1` [Cilostazol] were 2.16%, 1.9% and 2.42%.
Consider `CN/C(=N/CCSCc1nc[nH]c1C)NC#N` [Cimetidine], for which the inhibition at 5 µM worked out at 1.76% (read-out: Replicate_1), 2.91% (read-out: Replicate_2) and 2.34% (read-out: mean).
Take `CCn1nc(C(=O)O)c(=O)c2cc3c(cc21)OCO3` [Cinoxacin]: the inhibition at 5 µM under setting [4] is -0.0118% and the inhibition at 5 µM under setting [5] came to 4.09%. Further, under setting [21], the “mean (LOPAC_screen_w_protease)” value is listed as 2.037.
With `CC(C)(Oc1ccc(C2CC2(Cl)Cl)cc1)C(=O)O` (stereo not drawn) [Ciprofibrate], the inhibition at 5 µM by setting is: under setting [6], 2.4%; under setting [7], 2.2%; under setting [8], 2.6%.
For the compound `c1ccc(C2CC2)c(OCC2=NCCN2)c1` [Cirazoline hydrochloride], the inhibition at 5 µM by setting is: under setting [4], 2.66%; under setting [5], 1%. The “mean (LOPAC_screen_w_protease)” value under setting [21] was determined as 1.832.
Take `CN(C)CCCC1(c2ccc(F)cc2)OCc2cc(C#N)ccc21` (stereo not drawn) [Citalopram hydrobromide]: the inhibition at 5 µM came out at 1.26% under setting [12], 1.98% under setting [13] and 0.536% under setting [14].
In the case of `C[N+](C)(C)CCOP(=O)([O-])OP(=O)([O-])OC[C@H]1O[C@@H](n2ccc(N)nc2=O)[C@H](O)[C@@H]1O.[Na+]` [Citicoline sodium], the “mean (LOPAC_screen_w_protease)” value under setting [21] was 2.039. For the same compound, the “Replicate_1 (LOPAC_screen_w_protease)” value under setting [2] was found to be 0.6867. Further, the “Replicate_2 (LOPAC_screen_w_protease)” value under setting [3] stood at 3.392.
Compound `Cl.Clc1ccc(Cn2c(CN3CCCC3)nc3ccccc32)cc1` [Clemizole hydrochloride] came in with a mean under setting [9] of 3.083. This compound returned a Replicate_1 under setting [10] of 2.873. This compound came in with a Replicate_2 under setting [11] of 3.2929.

Source of the values: publication PMC7587356, “High-Throughput Screening for Inhibitors of the SARS-CoV-2 Protease Using a FRET-Biosensor” (Molecules, 2020).
